{
  "source": "paper PMC5291709",
  "about": "“Structure of the active form of human origin recognition complex and its ATPase motor module” (eLife, 2017)",
  "key": {"[1]": {"biological_target": "T1, HsORC motor module (HsORC1/4/5) (Homo sapiens, UniProt O43913+O43929+Q13415, Q13415:R720Q)", "T1 construct": "gene ORC1; ORC1 471-861 (BAH domain removed), ORC4 full-length 1-436, ORC5 1-284 (WHD removed); Sf9 insect cells, two-Strep-SumoStar tag on ORC1 cleaved; heterotrimer", "T1 sequence (Q13415 471-861 R720Q)": "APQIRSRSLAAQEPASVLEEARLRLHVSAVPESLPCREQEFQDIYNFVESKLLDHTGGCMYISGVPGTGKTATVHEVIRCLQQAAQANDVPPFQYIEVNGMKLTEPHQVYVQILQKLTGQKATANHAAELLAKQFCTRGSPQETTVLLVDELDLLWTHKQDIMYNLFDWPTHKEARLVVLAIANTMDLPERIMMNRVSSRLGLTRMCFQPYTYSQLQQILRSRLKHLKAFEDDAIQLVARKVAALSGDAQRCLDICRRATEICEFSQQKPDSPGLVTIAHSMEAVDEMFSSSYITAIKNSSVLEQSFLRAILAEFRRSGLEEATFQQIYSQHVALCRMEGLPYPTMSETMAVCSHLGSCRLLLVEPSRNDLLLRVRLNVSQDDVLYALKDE", "T1 sequence (O43929 1-436)": "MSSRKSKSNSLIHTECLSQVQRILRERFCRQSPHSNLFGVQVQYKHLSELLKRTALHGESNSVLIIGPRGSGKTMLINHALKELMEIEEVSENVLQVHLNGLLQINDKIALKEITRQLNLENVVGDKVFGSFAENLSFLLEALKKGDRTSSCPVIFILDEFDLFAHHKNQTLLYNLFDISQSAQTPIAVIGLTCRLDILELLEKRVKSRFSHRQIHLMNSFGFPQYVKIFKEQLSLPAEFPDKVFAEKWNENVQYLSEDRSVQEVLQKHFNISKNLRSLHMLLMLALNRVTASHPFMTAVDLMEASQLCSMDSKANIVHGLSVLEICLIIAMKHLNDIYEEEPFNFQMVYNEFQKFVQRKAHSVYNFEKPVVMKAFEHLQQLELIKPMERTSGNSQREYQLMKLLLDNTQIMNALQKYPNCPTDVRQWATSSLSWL", "T1 sequence (O43913 1-284)": "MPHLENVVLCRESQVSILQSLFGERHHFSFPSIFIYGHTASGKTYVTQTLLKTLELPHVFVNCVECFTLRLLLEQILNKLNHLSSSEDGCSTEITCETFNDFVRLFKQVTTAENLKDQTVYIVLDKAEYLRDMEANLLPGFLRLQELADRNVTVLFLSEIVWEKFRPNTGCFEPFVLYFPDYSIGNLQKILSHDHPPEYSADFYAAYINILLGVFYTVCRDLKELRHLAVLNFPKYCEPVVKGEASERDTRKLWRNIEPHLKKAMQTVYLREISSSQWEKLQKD", "experiment": "radiolabelled ATPase assay, TLC", "format": "biochemical", "conditions": "50 mM Hepes-NaOH pH 7.5, 200 mM KCl, 5 mM MgCl2, 5 mM DTT, 37 C, 12.5-200 uM ATP, 10 uM complex; [gamma-32P]ATP tracer; ORC1/4 interface; Meier-Gorlin Syndrome mutant (sensor-2 trigger)"}, "[2]": {"biological_target": "T2, HsORC motor module (HsORC1/4/5) (Homo sapiens, UniProt O43913+O43929+Q13415, O43929:D159A/Q13415:D620A)", "T2 construct": "gene ORC1; ORC1 471-861 (BAH domain removed), ORC4 full-length 1-436, ORC5 1-284 (WHD removed); Sf9 insect cells, two-Strep-SumoStar tag on ORC1 cleaved; heterotrimer", "T2 sequence (Q13415 471-861 D620A)": "T1 sequence (Q13415 471-861 R720Q) with D150A, Q250R", "T2 sequence (O43929 1-436 D159A)": "T1 sequence (O43929 1-436) with D159A", "T2 sequence (O43913 1-284)": "T1 sequence (O43913 1-284)", "experiment": "radiolabelled ATPase assay, TLC", "format": "biochemical", "conditions": "50 mM Hepes-NaOH pH 7.5, 200 mM KCl, 5 mM MgCl2, 5 mM DTT, 37 C, 12.5-200 uM ATP, 10 uM complex; [gamma-32P]ATP tracer; ORC1/4 interface; double Walker-B mutant"}, "[3]": {"biological_target": "T3, HsORC motor module (HsORC1/4/5) (Homo sapiens, UniProt O43913+O43929+Q13415, O43929:Y174C)", "T3 construct": "gene ORC1; ORC1 471-861 (BAH domain removed), ORC4 full-length 1-436, ORC5 1-284 (WHD removed); Sf9 insect cells, two-Strep-SumoStar tag on ORC1 cleaved; heterotrimer", "T3 sequence (Q13415 471-861)": "T1 sequence (Q13415 471-861 R720Q) with Q250R", "T3 sequence (O43929 1-436 Y174C)": "T1 sequence (O43929 1-436) with Y174C", "T3 sequence (O43913 1-284)": "T1 sequence (O43913 1-284)", "experiment": "radiolabelled ATPase assay, TLC, Michaelis-Menten fit", "format": "biochemical", "conditions": "50 mM Hepes-NaOH pH 7.5, 200 mM KCl, 5 mM MgCl2, 5 mM DTT, 37 C, 12.5-200 uM ATP, 10 uM complex; [gamma-32P]ATP tracer; ORC1/4 interface; Meier-Gorlin Syndrome mutant"}, "[4]": {"biological_target": "T4, HsORC motor module (HsORC1/4/5) (Homo sapiens, UniProt O43913+O43929+Q13415)", "T4 construct": "gene ORC1; ORC1 471-861 (BAH domain removed), ORC4 full-length 1-436, ORC5 1-284 (WHD removed); Sf9 insect cells, two-Strep-SumoStar tag on ORC1 cleaved; heterotrimer", "T4 sequence (Q13415 471-861)": "T1 sequence (Q13415 471-861 R720Q) with Q250R", "T4 sequence (O43929 1-436)": "T1 sequence (O43929 1-436)", "T4 sequence (O43913 1-284)": "T1 sequence (O43913 1-284)", "experiment": "X-ray crystal structure, […] A", "format": "binding", "conditions": "unhydrolysed ATP at the ORC1/ORC4 and ORC4/ORC5 interfaces and on ORC5; Mg2+"}, "[5]": {"biological_target": "T5, HsORC motor module (HsORC1/4/5) (Homo sapiens, UniProt O43913+O43929+Q13415, Q13415:D620A)", "T5 construct": "gene ORC1; ORC1 471-861 (BAH domain removed), ORC4 full-length 1-436, ORC5 1-284 (WHD removed); Sf9 insect cells, two-Strep-SumoStar tag on ORC1 cleaved; heterotrimer", "T5 sequence (Q13415 471-861 D620A)": "T1 sequence (Q13415 471-861 R720Q) with D150A, Q250R", "T5 sequence (O43929 1-436)": "T1 sequence (O43929 1-436)", "T5 sequence (O43913 1-284)": "T1 sequence (O43913 1-284)", "experiment": "radiolabelled ATPase assay, TLC", "format": "biochemical", "conditions": "50 mM Hepes-NaOH pH 7.5, 200 mM KCl, 5 mM MgCl2, 5 mM DTT, 37 C, 12.5-200 uM ATP, 10 uM complex; [gamma-32P]ATP tracer; ORC1/4 interface; Walker-B mutant"}, "HsORC1-5": {"biological_target": "T6, HsORC1-5 (Homo sapiens, UniProt O43913+O43929+Q13415, Q13415:R720Q)", "T6 construct": "gene ORC1; heteropentamer without ORC6; Sf9 insect cells; with Origin recognition complex subunit 5; Origin recognition complex subunit 2; Origin recognition complex subunit 3", "T6 sequence (O43913 whole entry, one chain of several)": "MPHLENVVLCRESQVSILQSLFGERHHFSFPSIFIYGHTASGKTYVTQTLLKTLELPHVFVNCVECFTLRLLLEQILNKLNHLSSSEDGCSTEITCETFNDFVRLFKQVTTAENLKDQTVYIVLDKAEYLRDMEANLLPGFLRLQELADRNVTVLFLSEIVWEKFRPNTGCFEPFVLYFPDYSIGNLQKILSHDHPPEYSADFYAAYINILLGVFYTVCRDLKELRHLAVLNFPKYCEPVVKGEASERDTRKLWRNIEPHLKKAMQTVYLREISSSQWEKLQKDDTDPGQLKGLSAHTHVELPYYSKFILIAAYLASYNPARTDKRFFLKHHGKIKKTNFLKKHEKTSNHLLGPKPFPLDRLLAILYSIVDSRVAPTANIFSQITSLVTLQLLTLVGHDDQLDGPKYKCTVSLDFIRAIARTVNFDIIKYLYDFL", "T6 sequence (Q13416 whole entry partner, one chain of several)": "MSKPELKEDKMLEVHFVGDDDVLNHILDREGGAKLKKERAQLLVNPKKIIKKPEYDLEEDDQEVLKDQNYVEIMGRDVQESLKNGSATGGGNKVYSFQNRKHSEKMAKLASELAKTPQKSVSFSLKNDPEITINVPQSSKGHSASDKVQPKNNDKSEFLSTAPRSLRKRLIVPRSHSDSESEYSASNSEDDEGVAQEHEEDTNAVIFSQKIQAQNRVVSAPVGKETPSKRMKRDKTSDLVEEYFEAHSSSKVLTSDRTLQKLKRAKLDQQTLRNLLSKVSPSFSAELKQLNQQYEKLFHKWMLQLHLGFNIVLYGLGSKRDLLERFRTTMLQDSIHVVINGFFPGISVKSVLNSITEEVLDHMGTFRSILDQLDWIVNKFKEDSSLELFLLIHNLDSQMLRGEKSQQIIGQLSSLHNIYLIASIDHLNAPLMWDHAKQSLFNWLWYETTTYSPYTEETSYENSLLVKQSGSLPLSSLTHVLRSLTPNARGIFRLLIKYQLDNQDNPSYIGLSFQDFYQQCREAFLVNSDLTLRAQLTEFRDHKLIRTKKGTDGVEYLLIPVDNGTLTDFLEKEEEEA", "T6 sequence (Q9UBD5 whole entry partner, one chain of several)": "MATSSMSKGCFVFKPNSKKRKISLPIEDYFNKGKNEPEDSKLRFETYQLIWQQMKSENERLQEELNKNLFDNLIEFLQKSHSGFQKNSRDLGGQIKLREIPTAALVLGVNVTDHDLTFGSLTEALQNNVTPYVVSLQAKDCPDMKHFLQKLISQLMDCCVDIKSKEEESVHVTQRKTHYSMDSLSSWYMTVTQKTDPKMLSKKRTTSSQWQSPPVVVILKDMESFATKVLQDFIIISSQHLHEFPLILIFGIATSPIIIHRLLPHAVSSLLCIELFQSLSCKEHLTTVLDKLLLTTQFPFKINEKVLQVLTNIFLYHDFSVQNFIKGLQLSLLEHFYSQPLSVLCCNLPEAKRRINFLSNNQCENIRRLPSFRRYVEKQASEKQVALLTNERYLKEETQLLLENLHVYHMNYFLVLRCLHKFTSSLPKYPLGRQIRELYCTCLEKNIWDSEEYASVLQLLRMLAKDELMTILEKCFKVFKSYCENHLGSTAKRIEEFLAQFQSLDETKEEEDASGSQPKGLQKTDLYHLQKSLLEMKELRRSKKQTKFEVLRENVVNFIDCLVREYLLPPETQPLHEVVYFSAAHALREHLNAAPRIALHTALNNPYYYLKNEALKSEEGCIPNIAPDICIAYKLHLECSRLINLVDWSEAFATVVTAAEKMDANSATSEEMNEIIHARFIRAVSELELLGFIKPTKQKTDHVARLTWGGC", "experiment": "radiolabelled ATPase assay, TLC", "format": "biochemical", "conditions": "50 mM Hepes-NaOH pH 7.5, 200 mM KCl, 5 mM MgCl2, 5 mM DTT, 37 C, 12.5-200 uM ATP, 10 uM complex; [gamma-32P]ATP tracer; ORC1/4 interface; Meier-Gorlin Syndrome mutant"}},
  "note": "Residue numbers refer to the chain shown, from its start.",
  "data": [
    {"smiles": "Nc1ncnc2c1ncn2[C@@H]1O[C@H](COP(=O)(O)OP(=O)(O)OP(=O)(O)O)[C@@H](O)[C@H]1O", "note": "[ATP]", "values": [
      {"measurement": "radiolabelled ATPase assay, TLC", "setting": "[1]", "result": "ORC1-R720Q abolished ATPase activity of the motor module"},
      {"measurement": "radiolabelled ATPase assay, TLC", "setting": "[2]", "result": "A double mutant of the Walker-B motif of both ORC1 and ORC4 also abolished activity"},
      {"measurement": "ATPase activity", "setting": "[3]", "result": "renders the motor module hyperactive for ATPase activity"},
      {"measurement": "X-ray crystal structure, 3.4 A", "setting": "[4]", "result": "The HsORC motor module crystallized with ATP, and the nucleotides can be clearly seen"},
      {"measurement": "radiolabelled ATPase assay, TLC", "setting": "[5]", "result": "Disrupting the ORC1 Walker-B motif (ORC1 D620A) effectively abolished ATPase activity"},
      {"measurement": "radiolabelled ATPase assay, TLC", "setting": "HsORC1-5", "result": "the ORC1 MGS mutation R720Q all show very little activity"}
    ]}
  ]
}
